Our source for the inhibition and kinact/KI values is patent US20250109135A1, “NOVEL ISOINDOLINONE DERIVATIVE COMPOUNDS AS CASPASE INHIBITORS” (INNOVO THERAPEUTICS INC., priority 2022, published 2025).

Assay [1] relates to Secreted IL-1β in THP-1 cells. Put plainly: Interleukin-1β inhibitory activity in human monocytic cells THP-1 (ELISA). The format is cell-based. Conditions: compound 100 nM, PMA-differentiated THP-1, LPS 10 μg/ml then 5 mM ATP, 24 h. The protocol: Caspase-1 is known as […] (ICE). Activated Caspase-1 is involved in the cleavage of pro-form IL-1β to produce the mature form, which is then secreted to induce inflammation. Therefore, the compounds identified in Experimental example 1 were tested to determine if their Caspase-1 inhibitory activity affected the production of […].
THP-1 (ATCC) cells were cultured in RPMI 1640 (Hyclone) growth medium comprising 10% Fetal bovine serum (FBS, Gibco) and antibiotics (100 U/ml Penicillin, 0.1 mg/ml Streptomycin, Cytiva) under 37° C., 5% CO2 conditions. Cultured THP-1 cells were seeded in growth medium to a concentration of 3×10^5 cells/well in 24-well plates (Celvest) and then treated with 1 μM Phorbol 12-myristate 13-acetate (PMA) (Sigma) for 24 hours to induce differentiation. Differentiated THP-1 were pre treated with 10 μg/ml Lipopolysaccharide (LPS, from E. coli 0111:B4 (InvivoGen)) in serum free RPMI 1640 medium for 24 hours to induce an inflammatory response. After removal of LPS, the compounds were pretreated for 1 h at a concentration of 100 nM using the same medium, followed by the addition of 5 mM ATP (InvivoGen) and incubation for 24 h in an incubator. The treated medium was collected and centrifuged, and IL-1β was quantified using an Enzyme linked immunoassay kit (ELISA kit, R&D system), and absorbance was measured at 450 nm using a CLARIOstar Plus spectrometer. Inhibitory activity was denoted as a if it was 50% or more, b if it was 30% or more but less than 50%, c if it was 10% or more but less than 30%, and d if it was less than 10%.
(In general: ELISA stands for enzyme-linked immunosorbent assay.)

Another assay has as its system Jurkat cells. Briefly: Apoptosis inhibition activity in human T-lymphocyte cells Jurkat (anti-FAS antibody, intracellular ATP). The format is cell-based. Conditions: compound 50 nM, 1 μg/ml anti-FAS antibody 24 h, ATP luminescence. As to the method:
To evaluate the effect of the compound of the present invention on apoptosis, Jurkat (ATCC) cells were treated with anti-FAS antibody CH-11 (Merck) to induce apoptosis via the Fas (CD95) receptor, which was assessed by the amount of intracellular ATP.
Jurkat cells were cultured in RPMI 1640 growth medium comprising 10% FBS and antibiotics (100 U/ml Penicillin, 0.1 mg/ml Streptomycin) under 37° C., 5% CO2 conditions. Cultured cells were seeded in growth medium to a concentration of 8×10^4 cells/well in 96-well plates (SPL), pretreated with compound at a concentration of 50 nM for 1 hour, and then treated with 1 μg/ml anti-FAS antibody for 24 hours in an incubator. After 24 h, an ATP lite Luminescence assay kit (PerkinElmer) was used to measure ATP and luminescence was measured at 580 nm using a CLARIOstar Plus spectrometer. If the inhibitory activity is 30% or more, it is denoted as a′, if it is 20% or more but less than 30%, it is denoted as b′, if it is 10% or more but less than 20%, it is denoted as c′, and if it is less than 10%, it is denoted as d′.

Assay [2] has as its target T1, recombinant human Caspase-1 (Homo sapiens, UniProt P29466).
T1 construct: purchased Enzo life science
T1 sequence (P29466 120-297 limits assumed): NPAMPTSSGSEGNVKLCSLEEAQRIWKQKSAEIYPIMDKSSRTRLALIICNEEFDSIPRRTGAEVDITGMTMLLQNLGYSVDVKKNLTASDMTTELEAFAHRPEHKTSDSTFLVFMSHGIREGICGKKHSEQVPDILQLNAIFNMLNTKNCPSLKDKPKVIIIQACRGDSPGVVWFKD
T1 sequence (P29466 317-404 limits assumed): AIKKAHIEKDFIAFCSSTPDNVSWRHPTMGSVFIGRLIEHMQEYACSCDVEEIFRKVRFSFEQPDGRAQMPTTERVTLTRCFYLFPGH
Put plainly: Caspase-1 inhibitory activity, fluorescent substrate Ac-YVAD-AFC. The format is biochemical. The protocol: To determine the Caspase-1 inhibitory activity of the compounds of the present invention prepared in Example, Caspase-1 activity was measured using a substrate with a fluorescent dye attached to it. […] The compound was dissolved in DMSO and stored at −20° C. Enzymatic reactions were carried out in a buffer comprising 50 mM HEPES (pH 8.0), 50 mM KCl, 200 mM NaCl, 10 mM DTT, 0.1% CHAPS (w/v). Enzyme inactivation was measured in the presence of different concentrations of the compound using the fluorescent substrate N-Acetyl-Tyr-Val-Ala-Asp-7-amido-4-trifluoromethylcoumarin (Ac-YVAD-AFC) (Sigma) at a concentration of 50 μM and 1 unit of recombinant human Caspase-1 (Enzo life science). A CLARIOstar Plus spectrometer (BMG Labtech) was used to measure the reaction rate as a function of time in the 400/505 nm (Ex/Em) wavelength band. […] If kobs/[I] is 20 or more, it is denoted as A, if it is 10 or more but less than 20, it is denoted as B, if it is 1 or more but less than 10, it is denoted as C, and if it is less than 1, it is denoted as D.
In the above equation, At means the enzyme reaction rate at time t (min), and Amax means the maximum reaction rate.

[3] abbreviates: pH 8, read-out: kobs/[I] Caspase-1.
Where [4] appears, read: pH 8, 1 unit recombinant human Caspase-1, 50 μM Ac-YVAD-AFC, read-out: kobs/[I] Caspase-1.

Like-named read-outs stand apart in the source and are kept apart here.

In turn, `CC[C@@H](C(=O)N[C@@H](CC(=O)O)C(=O)COc1c(F)c(F)cc(F)c1F)N1Cc2ccc(-c3ccc4[nH]c(=O)[nH]c4c3)cc2C1=O` [Compound 52, (S)-4-oxo-3-((S)-2-(1-oxo-6-(2-oxo-2,3-dihydro-1H-benzo[d]imidazol-5-yl)isoindolin-2-yl)butanamido)-5-(2,3,5,6-tetrafluorophenoxy)pentanoic acid] gave an inhibition at 0.1 µM in assay [1] of 10 to 30%. This compound had an inhibition at 0.05 µM in the assay with Jurkat cells of 10 to 20%. For the same compound, the kinact/KI in assay [2] (setting [3]) is more than 0.333 M⁻¹ s⁻¹.
On to `CC[C@@H](C(=O)NC(CC(=O)O)C(=O)CF)N1Cc2ccc(-c3ccc4[nH]c(=O)[nH]c4c3)cc2C1=O` (stereo partly drawn) [Compound 56, 5-fluoro-4-oxo-3-((S)-2-(1-oxo-6-(2-oxo-2,3-dihydro-1H-benzo[d]imidazol-5-yl)isoindolin-2-yl)butanamido)pentanoic acid], for which the inhibition at 0.1 µM in assay [1] was not below 50%. Also, the inhibition at 0.05 µM with Jurkat cells was less than 10%. In addition, the kinact/KI in assay [2] (setting [4]) lay in the range of 0.167 to 0.333 M⁻¹ s⁻¹.
With `CCC(C(=O)NC(CC(=O)O)C(=O)CF)N1Cc2ccc(-c3csc4ccccc34)cc2C1=O` (stereo not drawn) [Compound 16, 3-(2-(6-(benzo[b]thiophen-3-yl)-1-oxoisoindolin-2-yl)butanamido)-5-fluoro-4-oxopentanoic acid], the inhibition at 0.1 µM in assay [1] was not below 50%. This compound also returned an inhibition at 0.05 µM with Jurkat cells of 20 to 30%. Also, the kinact/KI in assay [2] (setting [3]) was more than 0.333 M⁻¹ s⁻¹.
`O=C(O)CC(NC(=O)CN1Cc2ccc(-c3ccc4[nH]c(=O)[nH]c4c3)cc2C1=O)C(=O)CF` (stereo not drawn) [Compound 38, 5-fluoro-4-oxo-3-(2-(1-oxo-6-(2-oxo-2,3-dihydro-1H-benzo[d]imidazol-5-yl)isoindolin-2-yl)acetamido)pentanoic acid]: the inhibition at 0.1 µM in assay [1] is less than 10%. The inhibition at 0.05 µM in the assay with Jurkat cells is less than 10%. The kinact/KI in assay [2] (setting [3]) is less than 0.0167 M⁻¹ s⁻¹.
In turn, `CCC(C(=O)NC(CC(=O)O)C(=O)CF)N1Cc2ccc(-c3ccc(C(C)=O)cc3)cc2C1=O` (stereo not drawn) [Compound 18, 3-(2-(6-(4-acetylphenyl)-1-oxoisoindolin-2-yl)butanamido)-5-fluoro-4-oxopentanoic acid] displayed an inhibition at 0.1 µM in assay [1] not below 50%. Moreover, the inhibition at 0.05 µM in the assay with Jurkat cells lay within 10 to 20%. For the same compound, the kinact/KI in assay [2] (setting [4]) was in the range of 0.0167 to 0.167 M⁻¹ s⁻¹.
On the same counts, the results for `CCC(C(=O)NC(CC(=O)O)C(=O)CF)N1Cc2ccc(-c3ccccc3)cc2C1=O` (stereo not drawn) [Compound 1, 5-fluoro-4-oxo-3-(2-(1-oxo-6-phenylisoindolin-2-yl)butanamido)pentanoic acid] are 10 to 30%, 20 to 30% and 0.0167 to 0.167 M⁻¹ s⁻¹.
For `CCC(C(=O)NC(CC(=O)O)C(=O)CF)N1Cc2ccc(N3CCN(S(C)(=O)=O)CC3)cc2C1=O` (stereo not drawn) [Compound 6, 5-fluoro-3-(2-(6-(4-(methylsulfonyl)piperazin-1-yl)-1-oxoisoindolin-2-yl)butanamido)-4-oxopentanoic acid], in that order: 10 to 30%, 10 to 20% and less than 0.0167 M⁻¹ s⁻¹.
`CCC(C(=O)NC(CC(=O)O)C(=O)CF)N1Cc2ccc(-c3cncc4ccccc34)cc2C1=O` (stereo not drawn) [Compound 29, 5-fluoro-3-(2-(6-(isoquinolin-4-yl)-1-oxoisoindolin-2-yl)butanamido)-4-oxopentanoic acid] yielded an inhibition at 0.1 µM in assay [1] of less than 10%. In addition, the inhibition at 0.05 µM in the assay on Jurkat cells was less than 10%. For the same compound, in assay [2] (setting [4]), the kinact/KI fell in the range of 0.0167 to 0.167 M⁻¹ s⁻¹.
Compound `CC[C@@H](C(=O)NC(CC(=O)O)C(=O)CF)N1Cc2cc(-c3cccc4ccccc34)ccc2C1=O` (stereo partly drawn) [Compound 61, 5-fluoro-3-((S)-2-(5-(naphthalen-1-yl)-1-oxoisoindolin-2-yl)butanamido)-4-oxopentanoic acid] yielded an inhibition at 0.1 µM in assay [1] of less than 10%. Moreover, the kinact/KI in assay [2] (setting [3]) is less than 0.0167 M⁻¹ s⁻¹.
In the case of `CCC(C(=O)NC(CC(=O)O)C(=O)CF)N1Cc2ccc(-c3ccc(C(=O)O)cc3)cc2C1=O` (stereo not drawn) [Compound 17, 4-(2-(1-((1-carboxy-4-fluoro-3-oxobutan-2-yl)amino)-1-oxobutan-2-yl)-3-oxoisoindolin-5-yl)benzoic acid], in assay [1], the inhibition at 0.1 µM is 10 to 30%. Further, the kinact/KI in assay [2] (setting [4]) was in the range of 0.0167 to 0.167 M⁻¹ s⁻¹.
`CCC(C(=O)NC(CC(=O)O)C(=O)CF)N1Cc2ccc(-c3ccc(S(C)(=O)=O)cc3F)cc2C1=O` (stereo not drawn) [Compound 12, 5-fluoro-3-(2-(6-(2-fluoro-4-(methylsulfonyl)phenyl)-1-oxoisoindolin-2-yl)butanamido)-4-oxopentanoic acid] showed an inhibition at 0.1 µM in assay [1] of 10 to 30%. Besides, in assay [2] (setting [4]), the kinact/KI is 0.0167 to 0.167 M⁻¹ s⁻¹.
On the same counts, the results for `CCC(C(=O)NC(CC(=O)O)C(=O)CF)N1Cc2ccc(-c3ccn(C)n3)cc2C1=O` (stereo not drawn) [Compound 25, 5-fluoro-3-(2-(6-(1-methyl-1H-pyrazol-3-yl)-1-oxoisoindolin-2-yl)butanamido)-4-oxopentanoic acid] are 10 to 30% and 0.0167 to 0.167 M⁻¹ s⁻¹.
Regarding `CC[C@@H](C(=O)N[C@@H](CC(=O)O)C(=O)COc1c(F)c(F)cc(F)c1F)N1Cc2ccc(N3CCCC3)cc2C1=O` [Compound 53, (S)-4-oxo-3-((S)-2-(1-oxo-6-(pyrrolidin-1-yl)isoindolin-2-yl)butanamido)-5-(2,3,5,6-tetrafluorophenoxy)pentanoic acid], the inhibition at 0.1 µM in assay [1] is less than 10%. Besides, the kinact/KI in assay [2] (setting [3]) was 0.0167 to 0.167 M⁻¹ s⁻¹.
For `CCC(C(=O)NC(CC(=O)O)C(=O)CF)N1Cc2ccc(-c3ccsc3)cc2C1=O` (stereo not drawn) [Compound 28, 5-fluoro-4-oxo-3-(2-(1-oxo-6-(thiophen-3-yl)isoindolin-2-yl)butanamido)pentanoic acid], in assay [1], the inhibition at 0.1 µM lay in the range of 10 to 30%. For the same compound, the kinact/KI in assay [2] (setting [4]) lay within 0.0167 to 0.167 M⁻¹ s⁻¹.
`CCC(C(=O)NC(CC(=O)O)C(=O)CF)N1Cc2ccc(-c3cccc4cnccc34)cc2C1=O` (stereo not drawn) [Compound 36, 5-fluoro-3-(2-(6-(isoquinolin-5-yl)-1-oxoisoindolin-2-yl)butanamido)-4-oxopentanoic acid] came in with an inhibition at 0.1 µM in assay [1] of less than 10%. The kinact/KI in assay [2] (setting [3]) fell in the range of 0.0167 to 0.167 M⁻¹ s⁻¹.
For the compound `CCC(C(=O)NC(CC(=O)O)C(=O)CF)N1Cc2ccc(Nc3cccc4ccccc34)cc2C1=O` (stereo not drawn) [Compound 11, 5-fluoro-3-(2-(6-(naphthalen-1-ylamino)-1-oxoisoindolin-2-yl)butanamido)-4-oxopentanoic acid], in assay [1], the inhibition at 0.1 µM fell in the range of 30 to 50%. Further, in assay [2] (setting [4]), the kinact/KI is less than 0.0167 M⁻¹ s⁻¹.
On the same counts, the results for `CCC(C(=O)NC(CC(=O)O)C(=O)CF)N1Cc2ccc(-c3cccc4ncccc34)cc2C1=O` (stereo not drawn) [Compound 34, 5-fluoro-4-oxo-3-(2-(1-oxo-6-(quinolin-5-yl)isoindolin-2-yl)butanamido)pentanoic acid] are less than 10% and 0.0167 to 0.167 M⁻¹ s⁻¹.

As a reminder, the inhibition is the change of the read-out against control, counted positive when it falls. The low end stands for a response near the control, the high end for a response far below the control.
